Experimental data reported in PubChem BioAssay (NCI).
Values joined by “and” are separate entries in the source; they are usually repeats but may differ in a detail not shown here. Identical values can stand only once.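 Exposure lasted 48 hours, with cells grown in 96-well plates and compounds tested at five concentrations. At the GI50, growth is halved. TGI denotes the concentration required for complete inhibition of growth.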 Where a SMILES comes first, the peptide text is derived from it. Bridges are numbered along the chain shown (N, C = ends). [ ]: non-standard residue; d: D form. ξ: configuration not given here. ξThr(3R) = C[C@@H](O)C(N)C(=O)O; S5 = C=CCCC[C@](C)(N)C(=O)O

Assays:
Assay in all cases: NCI anticancer screen, dose series, 48 h
COLO 205 colon = tested on: COLO 205 colon
SK-MEL-28 melanoma = tested on: SK-MEL-28 melanoma
BT-549 breast = tested on: BT-549 breast
MCF7 breast = tested on: MCF7 breast
MALME-3M melanoma = tested on: MALME-3M melanoma
SW-620 colon = tested on: SW-620 colon
UACC-62 melanoma = tested on: UACC-62 melanoma
HCT-116 colon = tested on: HCT-116 colon
K-562 leukemia = tested on: K-562 leukemia
ACHN renal = tested on: ACHN renal

Row | SMILES | GI50 (COLO 205 colon) [µM] | TGI (COLO 205 colon) | GI50 (SK-MEL-28 melanoma) [µM] | TGI (SK-MEL-28 melanoma) | GI50 (BT-549 breast) [µM] | TGI (BT-549 breast) | GI50 (MCF7 breast) [µM] | TGI (MCF7 breast) | GI50 (MALME-3M melanoma) [µM] | TGI (MALME-3M melanoma) [µM] | GI50 (SW-620 colon) [µM] | TGI (SW-620 colon) [µM] | GI50 (UACC-62 melanoma) [µM] | TGI (UACC-62 melanoma) | GI50 (HCT-116 colon) [µM] | TGI (HCT-116 colon) | GI50 (K-562 leukemia) [µM] | TGI (K-562 leukemia) | GI50 (ACHN renal) [µM] | TGI (ACHN renal)
1 | CCCCCCCCCC(CCCC(O)CC(=O)O)OC1OC(COC2OC(C)C(OC(C)=O)C(O)C2O)C(O)C(O)C1OC1OC(CO)C(O)C(O)C1OC1OC(C)C(OC(=O)CC(C)C)C(O)C1O (stereo unspecified) | > 35 | > 35 µM | > 35 | > 35 µM | > 35 | > 35 µM | > 35 | > 35 µM | > 35 | > 35 | > 35 | > 35 | > 35 | > 35 µM | > 35 | > 35 µM | > 35 | > 35 µM | > 35 | > 35 µM
2 | O=C(COc1ccc(OCC(=O)N2C(=O)CN(c3ccccc3)C2=S)cc1)N1C(=O)CN(c2ccccc2)C1=S | > 25 | > 100 µM | > 25 | > 100 µM | – | > 100 µM | – | > 100 µM | 36.7 | > 100 | > 25 | > 100 | > 25 | > 100 µM | > 25 | > 100 µM | > 25 | > 100 µM | > 25 | > 100 µM
3 | O=C(O)c1c(Cl)c(Cl)c(Cl)c(Cl)c1C(=O)Nc1ccc2cn[nH]c2c1 | – | > 100 µM | – | > 100 µM | – | > 100 µM | – | > 100 µM | – | > 100 | – | > 100 | – | > 100 µM | – | > 100 µM | – | > 100 µM | – | > 100 µM
4 | CN1CCN(c2ccc(NC(=O)c3cncnc3Nc3ccc(OCc4cccc(F)c4)c(Cl)c3)cc2)CC1 | 0.799 | 1.54 µM | 0.849 | 1.56 µM | > 50 | > 50 µM | 0.993 | 2.4 µM | 0.85 | 1.74 | 0.932 | 1.88 | 0.914 | 1.74 µM | 0.966 | 2.12 µM | 0.799 | 1.83 µM | 1.34 | 3.74 µM
5 | CN(C)Cc1ccc(C(C)(C)C)cc1-c1cc(C(C)(C)C)ccc1CN(C)C | – | 37.9 µM | – | > 100 µM | – | > 100 µM | – | > 100 µM | – | 79.6 | – | > 100 | – | > 100 µM | – | > 100 µM | – | > 100 µM | – | > 100 µM
6 | O=C(Nc1cccc(-n2cc(-c3ccncc3)c(-c3ccc(O)c(Cl)c3)n2)c1)c1cc(C(F)(F)F)cc(C(F)(F)F)c1 | 9.82 | 23.5 µM | 10.3 | > 50 µM | 4.34 | 46.6 µM | 2.17 | > 50 µM | 9.79 | 41.9 | 12.2 | > 50 | 10.6 | > 50 µM | 2.88 | > 50 µM | 2.57 | > 50 µM | 2.79 | > 50 µM
7 | COc1ccc(-c2[nH]nc(N)c2-c2cc(OC)c3c(c2)OCO3)cc1 | 4.76 | 20 µM | 6.3 | > 100 µM | 7.71 | > 100 µM | 3.83 | > 100 µM | 5.01 | > 100 | 3 | > 100 | 4.13 | > 100 µM | 2.71 | > 100 µM | 1.87 | > 100 µM | 6.88 | > 100 µM
8 | C[C@@H](NC(=O)c1ncnc(N)c1Cl)c1ncc(C(=O)Nc2cc(C(F)(F)F)c(Cl)cn2)s1 | 0.616 | 24.3 µM | 0.696 | 15.8 µM | 22.1 | 81.2 µM | 19.9 | 66.1 µM | 0.135 | 0.624 | 11 | > 75.5 | 0.402 | 8.7 µM | 3.17 | > 68.9 µM | 0.462 | > 45.9 µM | 15.7 | > 100 µM
9 | CCN(CC)CCC(CNc1ccnc2cc(Cl)ccc12)c1ccccc1 (stereo unspecified) | 1.45 | 3.33 µM | 1.92 | 3.45 µM | 10.8 | 24.6 µM | 4.75 | 18 µM | 2.05 | 3.88 | 4.81 | 22.2 | 2.04 | 5.05 µM | 2.8 | 15.4 µM | 1.46 | 5.61 µM | 3.91 | 14.7 µM
10 | O=C1C=CC(=Nc2cccc3c(N=C4C=CC(=O)O4)cccc23)O1 | – | 40.4 µM | – | > 100 µM | – | > 100 µM | – | > 100 µM | – | 42.8 | – | 34.3 | – | > 100 µM | – | 53.1 µM | – | 55.6 µM | – | 78.5 µM
11 | COc1ccc2nc3cc([N+](=O)[O-])ccc3c(NNc3ccccc3)c2c1 | 17.1 | 37.5 µM and 29.5 µM | 15.3 | 34.9 µM and > 100 µM | 15.9 | 35.7 µM and > 100 µM | 4.34 | 19.6 µM and 45.4 µM | – | 43.4 | 19.8 | > 100 | 5.93 | 22.8 µM and 25.1 µM | – | 28.2 µM and 28.6 µM | 3.49 | 29.4 µM and > 100 µM | 14.4 | 33.1 µM and > 83.3 µM
12 | CCOC(=O)c1c(NC(=O)c2ccccc2)sc2c3c(ccc12)OCN(C)C3 | 1.77 | 3.7 µM | 1.71 | 3.15 µM | 5.76 | 19.5 µM | 1.59 | 3.17 µM | 1.78 | 3.43 | 1.63 | 3.32 | 1.7 | 3.27 µM | 1.77 | 3.27 µM | 0.694 | 5.11 µM | 1.58 | 2.98 µM
13 | CC(=O)N[C@H](C(=O)N[C@@H](CCCNC(=N)N)C(=O)N[C@@H](CCCCN)C(=O)N[C@@H](CCCNC(=N)N)C(=O)NC(C(=O)N[C@@H](CC(C)C)C(=O)N[C@@H](CCCNC(=N)N)C(=O)N[C@@]1(C)CCC/C=C\CCC[C@@](C)(C(=O)N[C@@H](CCCNC(=N)N)C(=O)N[C@@H](CCC(=O)O)C(=O)N[C@@H](CC(C)C)C(=O)N[C@H](C(=O)N[C@@H](CCC(=O)O)C(N)=O)C(C)C)NC(=O)[C@H](CCC(N)=O)NC(=O)[C@H](CC(C)C)NC(=O)[C@H](CC(C)C)NC1=O)[C@@H](C)O)C(C)C (stereo partly drawn) (Ac-VRKR[ξThr(3R)]LR[S5]LLQ[S5]RELVE-NH2; staple (Z) 8-12) | 2.41 | 9.89 µM | 3.93 | 11.3 µM | 3.45 | 11.1 µM | 3.41 | 11.7 µM | 1.76 | 7.14 | 8.29 | 16.2 | 1.13 | 2.81 µM | 8.87 | 17.1 µM | 9.12 | 19.7 µM | 6.97 | 14.7 µM
14 | COc1ccc(C(=O)O[C@H]2[C@H](O[C@H]3[C@@H](O)COC(O[C@H]4C[C@H]5[C@@H]6CC=C7C[C@@H](O)CC[C@]7(C)[C@H]6CC[C@]5(C)[C@H]4[C@H](C)C(=O)CCC(C)C)[C@@H]3OC(C)=O)OC[C@@H](O)[C@@H]2O)c(C)c1 (stereo partly specified) | 0.0178 | 0.133 µM | < 0.01 | < 0.01 µM | < 0.01 | 10.7 µM | < 0.01 | 11 µM | 0.0127 | 11.6 | < 0.01 | 0.187 | < 0.01 | < 0.01 µM | < 0.01 | 15.8 µM | < 0.01 | 13.9 µM | 0.0312 | 38.9 µM
15 | Clc1ccc2ncc(-c3cccc(NC4CNC4)n3)n2c1 | 2.11 | 7.31 µM | 13 | > 100 µM | 10.5 | 31.8 µM | 4.64 | 52.3 µM | 8.59 | 26.4 | 2.92 | 15.8 | 10.2 | 27.3 µM | 3.7 | > 100 µM | 8.9 | > 100 µM | 1.91 | > 100 µM
16 | OCc1ccc(N2CCc3cc(F)ccc3C2)cc1Cl | 0.0828 | 0.353 µM | 13.8 | 26.9 µM | 15.1 | 28.7 µM | 0.0771 | 13.3 µM | 16.6 | 31.8 | 0.17 | 15.8 | 0.0256 | 0.198 µM | < 0.0166 | 11.2 µM | 0.125 | 17.2 µM | 11.8 | 24.4 µM
17 | COc1ccc2nc(-c3ccccc3)cc(Nc3cccc(C(C)=O)c3)c2c1 | 6.58 | 41.1 µM | 12.4 | 43.4 µM | 18.2 | 40.3 µM | 7.95 | 33.2 µM | 12.5 | 27.7 | 2.7 | 15.1 | 15.4 | 31.4 µM | 3.72 | 15.4 µM | 7.73 | > 100 µM | 5.78 | 22.5 µM
18 | O=C1c2cccnc2C(=O)c2c1c(C(=O)NCCn1ccnc1)c1ccccn21 | 1.48 | 3.17 µM | 4.66 | 20.7 µM | 5.14 | 16.9 µM | 1.19 | 3.37 µM | 0.722 | 2.14 | 2.55 | 11.1 | 1.84 | 4.4 µM | 3.18 | 9.58 µM | 4.39 | > 100 µM | 2.75 | 36 µM
19 | CCN(CC)c1ccc2nc3c4ccccc4c(=O)cc-3n(-c3ccccc3)c2c1 | 0.353 | 1.59 µM | 2.05 | 7.07 µM | 1.95 | 5.06 µM | 0.53 | 7.83 µM | 1.4 | 3.56 | 2.89 | 13.6 | 1.36 | 4.31 µM | 1.35 | 3.27 µM | 2.41 | > 100 µM | 2.13 | 14.9 µM
20 | Cc1ccc(-c2nc(N3CCNCC3)c3oc(-c4ccccc4)nc3n2)cc1 | 1.81 | 3.53 µM | 1.91 | 3.39 µM | 13.8 | 31.6 µM | 1.85 | 3.75 µM | 2.07 | 3.75 | 2.06 | 3.88 | 1.74 | 3.19 µM | 1.85 | 3.29 µM | 1.61 | 3.55 µM | 1.75 | 3.12 µM
